Measured values as given in patent EP0103381B1, “Substituted anthra(1,9-cd)pyrazol-6(2H)-ones” (WARNER-LAMBERT COMPANY, priority 1982, dated 1984).

Legend:
[1] = tested on: HCT-8 (human colon adenocarcinoma) cells; test: in vitro activity against human colon adenocarcinoma (HCT-8), cell count; assay type: cell-based; conditions: Homo sapiens; HCT-8 cells, 60-65 hrs with compound; molar quantity of drug required to kill 50% of the tumor cells; read-out: ID50 Molar
Protocol: HCT-8 (human colon adenocarcinoma) cells are trypsinized using Trypsin-EDTA. A single cell suspension is achieved by passing the cells through a 26 gauge needle with a 20 cc syringe. A cell suspension is prepared using RPMI 1640 growth medium (available from Gibco Laboratories) +10% fetal calf serum +50 µg/ml garamycin with a cell concentration of approximately 30,000 cells/ml. The cell suspension is dispensed in Linbro 24-well plates; 1 ml/well. The plates are incubated for approximately 48 hrs at 37°C in a 5% C02 atmosphere. At this time test compounds are added in the appropriate concentration. Five µl of the 200 µg/ml stock solution is added to each well in a primary test. Ten pl of the appropriate dilution is added to each well for a titration test. The plates are reincubated an additional 60-65 hrs at 37°C in a 5% C02 atmosphere. The test is read by lysing the cells using a mix of cationic surfactant, glacial acetic acid and sodium chloride. […] of the lysed cell suspension from each well is added to 8 ml of diluent. Each sample is read with a Coulter counter (ZBI model). The activity of each sample is measured as a percentage of the controls and the data is reported as ID50, that is the molar quantity of drug required to kill 50% of the tumor cells.

[2] = tested on: lymphocytic leukemia P388; test: in vivo lymphocytic leukemia P388 test; design: species or system mice; conditions: Mus musculus, P388, ip, 720 h, two single doses four days apart, read-out: T/C × 100 (Percent); for response vs control in vivo at 1.56 mg/kg: P388, Dose 1.56 mg/kg intraperitoneally; for response vs control in vivo at 25 mg/kg: P388, Dose 25 mg/kg intraperitoneally
Method in brief: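 CD2F mice (6–7 per group) were inoculated intraperitoneally with P388 leukemia ascitic cells. Compounds were then given i.p. as two doses four days apart at various levels. Survival over 30 days was expressed as treated/control time ratio, efficacy criterion T/C×100 >125%.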

Escherichia coli = test: agar plate paper-disc inhibition zone screening; assay type: cell-based; conditions: read-out: Inhibition Zone Diameter mm (Dose mg/ml) E. Coli; for zone of inhibition at 1000 µg/mL: Dose 1.0 mg/ml; for zone of inhibition at 3000 µg/mL: Dose 3.0 mg/ml; for zone of inhibition at 500 µg/mL: Dose 0.5 mg/ml
Method in brief: (§1)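 Inoculum: saline suspension, 20-35% transmittancy, in molten agar. Discs 12.7 mm, compound 3,000/1,000/500/100/10 mcg/ml, solvent <10%. 37°C, 18-20 h; zone diameter in mm.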

Streptococcus faecalis = test: agar plate paper-disc inhibition zone screening; assay type: cell-based; conditions: Enterococcus faecalis, read-out: Inhibition Zone Diameter mm (Dose mg/ml) S. Faecalis; for zone of inhibition at 500 µg/mL: Dose 0.5 mg/ml; for zone of inhibition at 3000 µg/mL: Dose 3.0 mg/ml; for zone of inhibition at 1000 µg/mL: Dose 1.0 mg/ml
Method in brief: as §1

Bacillus subtilis = test: agar plate paper-disc inhibition zone screening; assay type: cell-based; conditions: read-out: Inhibition Zone Diameter mm (Dose mg/ml) B. Subtilis; for zone of inhibition at 1000 µg/mL: Dose 1.0 mg/ml; for zone of inhibition at 500 µg/mL: Dose 0.5 mg/ml; for zone of inhibition at 100 µg/mL: Dose 0.1 mg/ml
Method in brief: as §1

Aerobacter aerogenes = test: agar plate paper-disc inhibition zone screening; assay type: cell-based; conditions: Klebsiella aerogenes, read-out: Inhibition Zone Diameter mm (Dose mg/ml) A. Aerogenes; for zone of inhibition at 1000 µg/mL: Dose 1.0 mg/ml; for zone of inhibition at 100 µg/mL: Dose 0.1 mg/ml; for zone of inhibition at 500 µg/mL: Dose 0.5 mg/ml
Method in brief: as §1

Penicillium avellaneum = test: agar plate paper-disc inhibition zone screening; assay type: cell-based; conditions: Hamigera avellanea, read-out: Inhibition Zone Diameter mm (Dose mg/ml) P. Avellaneum; for zone of inhibition at 1000 µg/mL: Dose 1.0 mg/ml; for zone of inhibition at 3000 µg/mL: Dose 3.0 mg/ml
Method in brief: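 Mycelia and spores from a six-day 28°C agar culture, suspended in saline with 0.05% Tween 80 at 20% transmittancy, were seeded into molten agar trays. Compounds at 3,000, 1,000, 500, 100 and 10 mcg/ml (solvent <10%) were applied on 12.7 mm paper discs. After at least 20-24 h incubation, inhibition zone diameter was measured in mm.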

| SMILES | IC50 [1] [nM] | zone of inhibition at 3000 µg/mL (Streptococcus faecalis) [mm] | zone of inhibition at 3000 µg/mL (Escherichia coli) [mm] | zone of inhibition at 3000 µg/mL (Penicillium avellaneum) [mm] | zone of inhibition at 100 µg/mL (Bacillus subtilis) [mm] | zone of inhibition at 500 µg/mL (Aerobacter aerogenes) [mm] | also measured |
| --- | --- | --- | --- | --- | --- | --- | --- |
| CCN(CC)CCn1nc2c3c(c(NCCN4CCOCC4)ccc31)C(=O)c1ccccc1-2 [Example 4] | 120 |  |  |  |  |  | response vs control in vivo at 100 mg/kg ([2]; P388, Dose 100 mg/kg intraperitoneally): 145%; response vs control in vivo at 400 mg/kg ([2]; P388, Dose 400 mg/kg intraperitoneally): 211%; zone of inhibition at 1000 µg/mL (Escherichia coli): 14 mm; zone of inhibition at 500 µg/mL (Streptococcus faecalis): 14 mm; zone of inhibition at 1000 µg/mL (Bacillus subtilis): 25 mm; zone of inhibition at 1000 µg/mL (Aerobacter aerogenes): 15 mm; zone of inhibition at 1000 µg/mL (Penicillium avellaneum): 14 mm |
| CCN(CC)CCCCCCCNc1ccc2c3c(nn2CCN(CC)CC)-c2ccccc2C(=O)c13 [Example 6] | 2200 | 14 |  |  |  |  | zone of inhibition at 1000 µg/mL (Escherichia coli): 14 mm; zone of inhibition at 500 µg/mL (Bacillus subtilis): 17 mm; zone of inhibition at 3000 µg/mL (Aerobacter aerogenes; Dose 3.0 mg/ml): 0 mm; zone of inhibition at 1000 µg/mL (Penicillium avellaneum): 14 mm |
| CCN(CC)CCCCNc1ccc2c3c(nn2CCN(CC)CC)-c2ccccc2C(=O)c13 [Example 7] | 220 |  | 15 | 14 |  |  | zone of inhibition at 1000 µg/mL (Streptococcus faecalis): 14 mm; zone of inhibition at 1000 µg/mL (Bacillus subtilis): 17 mm; zone of inhibition at 100 µg/mL (Aerobacter aerogenes): 16 mm |
| CCN(CC)CCn1nc2c3c(c(NCCN4CCNCC4)ccc31)C(=O)c1ccccc1-2 [Example 9, 2-(2-(Diethylamino)ethyl]-5-[[2-(1-piperazinyl)ethyl]amino]anthra[1,9-cd]pyrazol-6(2H)-one] | 380 | 14 | 0 |  |  |  | zone of inhibition at 1000 µg/mL (Bacillus subtilis): 24 mm; zone of inhibition at 100 µg/mL (Aerobacter aerogenes): 19 mm; zone of inhibition at 1000 µg/mL (Penicillium avellaneum): 0 mm |
| CCN(CC)CCNc1ccc2c3c(nn2C)-c2ccccc2C(=O)c13 [Example 10, 5-[[2-[Diethylamino)ethyl]amino]-2-methylanthra[1,9-cd]pyrazol-6(2H)-one] | 410 |  | 15 |  | 15 | 17 | zone of inhibition at 1000 µg/mL (Streptococcus faecalis): 16 mm; zone of inhibition at 500 µg/mL (Penicillium avellaneum; Dose 0.5 mg/ml): 16 mm |
| Cn1nc2c3c(c(NCCNCCO)ccc31)C(=O)c1ccccc1-2 [Example 11, 5-[[2-[(2-Hydroxyethyl)amino]ethyl]amino]-2-methylanthra[1,9-cd]pyrazol-6(2H)-one] | 400 |  |  | 0 | 14 | 17 | zone of inhibition at 1000 µg/mL (Escherichia coli): 14 mm; zone of inhibition at 1000 µg/mL (Streptococcus faecalis): 14 mm |
| CCN(CC)CCNc1ccc2c3c(nn2CCO)-c2ccccc2C(=O)c13 [Example 13, 5-[[2-(Diethylamino]ethyl]amino]-2-(2-hydroxyethyl)anthra[1,9-cd]pyrazol-6(2H)-one] | 1800 |  |  | 16 | 15 | 20 | zone of inhibition at 1000 µg/mL (Escherichia coli): 15 mm; zone of inhibition at 1000 µg/mL (Streptococcus faecalis): 14 mm |
| CCN(CC)CCCNc1ccc2c3c(nn2CCO)-c2ccccc2C(=O)c13 [Example 15, 5-[[3-(Diethylamino)propyl]amino]-2-(2-hydroxyethyl)anthra[1,9-cd]pyrazol-6(2H)-one] | 480 | 14 | 0 | 0 |  |  | zone of inhibition at 1000 µg/mL (Bacillus subtilis): 22 mm; zone of inhibition at 1000 µg/mL (Aerobacter aerogenes): 15 mm |
| O=C1c2ccccc2-c2n[nH]c3ccc(NCCNCCO)c1c23 [Example 19, 5-[[2-[(2-Hydroxyethyl)amino]ethyl]amino]anthra[1,9-cd]pyrazol-6-(2H)-one] | 1500 | 17 | 0 | 0 |  | 18 | zone of inhibition at 500 µg/mL (Bacillus subtilis): 19 mm |
| O=C1c2ccccc2-c2nn(CCNCCO)c3ccc(NCCNCCO)c1c23 [Example 21, 2-[2-[(2-Hydroxyethyl)amino]ethyl]-5-[[2-[(2-hydroxyethyl)amino]ethyl]amino]anthra[1,9-cd]pyrazol-6(2H)-one] | 960 | 0 | 16 | 0 |  |  | response vs control in vivo at 1.56 mg/kg [2]: 132%; response vs control in vivo at 6.25 mg/kg ([2]; P388, Dose 6.25 mg/kg intraperitoneally): 147%; response vs control in vivo at 25 mg/kg [2]: 171%; response vs control in vivo at 50 mg/kg ([2]; P388, Dose 50 mg/kg intraperitoneally): 199%; zone of inhibition at 500 µg/mL (Bacillus subtilis): 18 mm; zone of inhibition at 1000 µg/mL (Aerobacter aerogenes): 14 mm |
| NCCNc1ccc2c3c(nn2CCNCCO)-c2ccccc2C(=O)c13 [Example 22, 5-[(2-Aminoethyl)amino]-2-[2-[(2-hydroxyethyl)amino]ethyl]anthra[1,9-cd]pyrazol-6(2H)-one] | 42 | 0 |  | 0 | 15 | 16 | response vs control in vivo at 1.56 mg/kg [2]: 150%; response vs control in vivo at 3.12 mg/kg ([2]; P388, Dose 3.12 mg/kg intraperitoneally): 162%; response vs control in vivo at 12.5 mg/kg ([2]; P388, Dose 12.5 mg/kg intraperitoneally): 175%; response vs control in vivo at 25 mg/kg [2]: 189%; zone of inhibition at 100 µg/mL (Escherichia coli; Dose 0.1 mg/ml): 14 mm |
| CNc1ccc2c3c(nn2CCNCCO)-c2ccccc2C(=O)c13 [Example 26, 2-[2-[(2-Hydroxyethyl)amino]ethyl]-5-(methylamino)anthra[1,9-cd]pyrazol-6(2H)-one] | 280 |  |  | 0 | 14 |  | zone of inhibition at 500 µg/mL (Escherichia coli): 14 mm; zone of inhibition at 500 µg/mL (Streptococcus faecalis): 15 mm; zone of inhibition at 100 µg/mL (Aerobacter aerogenes): 15 mm |
| CCN(CC)CCn1nc2c3c(cccc31)C(=O)c1c(NCCNCCO)cccc1-2 [Example 79, 2-[2-(Diethylamino)ethyl]-7-[[2-[(2-hydroxyethyl)amino]ethyl]amino]anthra[1,9-cd]pyrazol-6(2H)-one] | 93 |  |  | 15 | 20 | 18 | zone of inhibition at 500 µg/mL (Escherichia coli): 15 mm; zone of inhibition at 500 µg/mL (Streptococcus faecalis): 16 mm |
| CCN(CC)CCNc1cccc2c1C(=O)c1cccc3c1c-2nn3CCN(CC)CC [Example 80, 2-[2-(Diethylamino)ethyl]-7-[[2-(diethylamino)ethyi]amino]anthra[1,9-cd]pyrazol-6(2H)-one] | 220 |  |  |  | 19 | 16 | zone of inhibition at 500 µg/mL (Escherichia coli): 14 mm; zone of inhibition at 500 µg/mL (Streptococcus faecalis): 15 mm; zone of inhibition at 1000 µg/mL (Penicillium avellaneum): 16 mm |
